# System: RPE layer (retinal pigmented epithelium)
# Assay: Immunofluorescence (RPE65) for assessing damage of the retinal pigment epithelium in the NalO3-induced mouse model of macular degeneration
# Assay type: in vivo, C57BL/6J male mice
# Details: NalO3 mouse model, eye drops
# Experimental: (§1) To create a valid model of macular degeneration, the systemic administration (via the retro-orbital vein) of NalO3 was carried out in C57BL/6J male mice aged 5-8 weeks and weighing 22-25 g supplied by the Charles River company (Milan, Italy). In order to carry out the experiments described below, a total of 36 mice were used. The animals were kept in a temperature and humidity-controlled environment (12-hour dark/light cycle, free access to food and water). The experiments were performed in a temperature-controlled room (20 to 22° C.) between 8:00 and 20:00. At the end of the experiment, the animals were euthanized by inhalation of a mixture of 50% O2/50% CO2 for 1 minute. The NalO3, DMSO, Tween 80 and NaCl 0.9% reagents used in the study were purchased from Merck Life Science SRL (Milan, Italy).
# (§2) The mice were administered locally, through eye drops, the compounds indicated above or their vehicle consisting of 4% DMSO, 4% Tween 80 in 0.9% NaCl.
# (§3) In particular, a group of 6 mice (used as a control) was administered by instillation, 60 minutes before the injection into the retro-orbital vein (1 ml/kg) of the vehicle (V1) (NaCl, 0.9%) of NalO3 and subsequently 3 times a day, eye drops (5 μl) containing the vehicle (V2) (4% DMSO, 4% Tween 80 in NaCl 0.9%) of the drugs.
# (§4) Another 30 mice received, in groups of 6 mice each, 60 minutes before the injection into the retro-orbital vein (1 ml/kg) of NalO3 (1%, 20 mg/kg) and subsequently 3 times a day, eye drops (5 μl) of a 10 mM solution of the above-mentioned compounds FN-005, FN-006, FN-007, FN-008 or their vehicle (V2) (4% DMSO, 4% Tween 80 in 0.9% NaCl) by instillation.
# (§5) For each group of mice, the first administration (day 1) of the compound of formula (IV), of the compound of formula (I), of the compound of formula (II) and of the compound of formula (III) or of the vehicle (V2) was performed 60 minutes before the injection of NalO3 or its vehicle (V1) and the second and third administration were performed 6 and 12 hours after the injection of vehicle (V1) or NalO3, respectively. On the two days (day 2 and day 3) following the injection of vehicle (V1) or NalO3, the compounds of formula (IV), (I), (II), and (III) or vehicle (V2) were administered to the various groups of mice at 8:00, 14:00 and 20:00.
# (§6) At 09:00 on day 4 after the treatment with vehicle (V1) or NalO3 the mice given the compounds indicated above as FN-005, FN-006, FN-007, FN-008 or their vehicle (V2) were sacrificed (as previously reported) and the eyeballs were enucleated and processed for subsequent analysis of the damage.
# Direct immunofluorescence was used to assess damage to the RPE (retinal pigmented epithelium), which corresponds to the layer of pigmented cells immediately adjacent to the neurosensory retina which nourishes the visual cells of the retina, and is firmly attached to the underlying choroid and the overlying visual retinal cells.
# The staining intensity of the RPE layer was quantified using a primary antibody (RPE65, #ab13826, mouse monoclonal, 1:100, Abcam, Cambridge, UK) to which a second fluorophore-labelled antibody (Alexa Fluor 488, #A28175, Thermo Fisher Scientific) binds in the 6 groups of mice treated with V2/V1, V2/NalO3, with the compound of formula (IV) and NalO3 (FN-005/NalO3), with the compound of formula (I) of polycyclic heteroaromatic derivatives and NalO3 (FN-006/NalO3), with the compound of formula (II) and NalO3 (FN-007/NalO3) and with the compound of formula (III) and NalO3 (FN-008/NalO3). Cell nuclei were visualized using the DAPI organic dye (#ab228549, Abcam, Cambridge, UK).
# The data relating to the fluorescence intensity value are presented for each treatment as mean±SEM. *p<0.05 vs V1/V2; § p<0.05 vs NalO3 in FIG. 1B. Statistical analysis using one-way analysis of variance (ANOVA) test and Bonferroni test.
row,Structure (SMILES),protection of the retina from NalO3-induced damage of the cells of the RPE layer (in words)
1,COCCCOc1cccc([C@H]2NC(=S)NC3=C2C(=O)c2ccccc23)c1 [compound of formula (II)],particularly effective in protecting the retina
2,Cc1cc2[nH]ncc2cc1-c1ccccc1C(F)(F)F [compound of formula (III)],particularly effective in protecting the retina
3,C[C@H]1[C@H](F)C[C@@H](C(=O)NCc2cc(-c3cnc(C(F)(F)F)nc3)ncc2C(F)(F)F)N1S(=O)(=O)c1ccc(F)cc1 [compound of formula (IV)],particularly effective in protecting the retina

# Same assay, conditions: eye drops 5 μl of 10 mM solution, 60 min before NalO3 (20 mg/kg, retro-orbital vein) then 3 times a day; retina collected day 4; mean±SEM; P<0.01 vs. V2/NalO3
row,Structure (SMILES),reduction of the NalO3-induced damage on the RPE layer compared to V2 (RPE65 staining intensity)
1,COCCCOc1cccc([C@H]2NC(=S)NC3=C2C(=O)c2ccccc23)c1 [compound of formula (II)],60.0±12.8%
2,Cc1cc2[nH]ncc2cc1-c1ccccc1C(F)(F)F [compound of formula (III)],96.8±20.0%
3,C[C@H]1[C@H](F)C[C@@H](C(=O)NCc2cc(-c3cnc(C(F)(F)F)nc3)ncc2C(F)(F)F)N1S(=O)(=O)c1ccc(F)cc1 [compound of formula (IV)],84.5±33%

# System: 4-hydroxynonenal (4-HNE)
# Assay: Assessment of oxidative stress at the retinal level (4-HNE immunofluorescence) in the NalO3-induced mouse model of macular degeneration
# Assay type: in vivo, C57BL/6J male mice
# Details: NalO3 mouse model, eye drops
# Experimental: as §1, §2, §3, §4, §5, §6
# The level of oxidative stress was also assessed throughout the thickness of the retina by measuring the immunofluorescence intensity for the reactive carbonyl species, 4-hydroxynonenal (4-HNE), a final indicator of oxidative stress.
# Levels of 4-HNE were quantified using a primary antibody (#ab48506, monoclonal mouse [HNEJ-2], 1:40, Abcam, Cambridge, UK) to which a second fluorophore-labelled antibody (Alexa Fluor 594, #A A32742, Thermo Fisher Scientific) binds in the 6 groups of mice treated as described above.
# Cell nuclei were visualized using the DAPI organic dye (#ab228549, Abcam, Cambridge, UK).
# The data relating to the fluorescence intensity value are presented for each treatment as mean±SEM. *p<0.05 vs V1/V2; § p<0.05 vs NalO3 in FIG. 2B. Statistical analysis using one-way analysis of variance (ANOVA) test and Bonferroni test.
row,Structure (SMILES),protection of the retina from the NalO3-induced increase of 4-HNE (in words)
1,COCCCOc1cccc([C@H]2NC(=S)NC3=C2C(=O)c2ccccc23)c1 [compound of formula (II)],protected the retina
2,Cc1cc2[nH]ncc2cc1-c1ccccc1C(F)(F)F [compound of formula (III)],protected the retina
3,C[C@H]1[C@H](F)C[C@@H](C(=O)NCc2cc(-c3cnc(C(F)(F)F)nc3)ncc2C(F)(F)F)N1S(=O)(=O)c1ccc(F)cc1 [compound of formula (IV)],protected the retina

# Same assay, conditions: eye drops 5 μl of 10 mM solution, 60 min before NalO3 (20 mg/kg, retro-orbital vein) then 3 times a day; retina collected day 4; mean±SEM; P<0.01 vs. V2/NalO3
row,Structure (SMILES),reduction of the retinal levels of 4-HNE (immunofluorescence)
1,COCCCOc1cccc([C@H]2NC(=S)NC3=C2C(=O)c2ccccc23)c1 [compound of formula (II)],50.32±6.30%
2,Cc1cc2[nH]ncc2cc1-c1ccccc1C(F)(F)F [compound of formula (III)],62.10±7.55%
3,C[C@H]1[C@H](F)C[C@@H](C(=O)NCc2cc(-c3cnc(C(F)(F)F)nc3)ncc2C(F)(F)F)N1S(=O)(=O)c1ccc(F)cc1 [compound of formula (IV)],64.16±17.51%

# — patent US20240285623A1, “TRPA1 CHANNEL ANTAGONIST COMPOUND FOR USE IN DEGENERATIVE RETINAL DISEASES” (FLONEXT S.R.L., priority 2021, published 2024)
